For data set [1], the target named is T1, carboxypeptidase A (Bos taurus, UniProt P00730).
T1 construct: carboxypeptidase A purified from bovine pancreas; purchased Sigma Chemical Co; host or cells: bovine pancreas
T1 sequence (P00730 111-419): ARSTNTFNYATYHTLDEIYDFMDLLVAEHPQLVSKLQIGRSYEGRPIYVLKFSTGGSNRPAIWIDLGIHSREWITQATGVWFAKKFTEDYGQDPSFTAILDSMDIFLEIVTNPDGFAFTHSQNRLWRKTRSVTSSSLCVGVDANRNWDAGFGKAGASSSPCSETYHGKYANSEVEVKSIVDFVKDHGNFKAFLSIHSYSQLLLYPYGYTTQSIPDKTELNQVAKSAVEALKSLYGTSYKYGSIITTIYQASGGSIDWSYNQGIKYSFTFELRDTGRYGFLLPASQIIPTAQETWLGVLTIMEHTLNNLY
The data set is described as follows: Inhibition of the action of carboxypeptidase A. The format is biochemical. The note with it: carboxypeptidase A purified from bovine pancreas, 37°C, 30 minutes, pH 7.5; read-out: CP-A inhibition IC50 (converted). As for the experimental part: (2) Inhibition of the action of carboxypeptidase A The inhibition of the action of carboxypeptidase A was determined by the method described in T. Tanaka et al., The Journal of Antibiotics, 37, 682 - 684 (1984). The method proceeds as follows: A mixture of 0.05 mℓ of 0.01 M fibril-L-phenylalanine (product of Sigma Chemical Co.) with 0.25 mℓ of 0.05 M Tris-HCℓ buffer solution (pH 7.5) containing 0.9 M NaCℓ. and 0.15 mℓ of a solution containing a teat compound was heated at 37°C for 3 minutes. To the heated solution, 0.05 mℓ of a diluted aqueous solution of carboxypeptidase A purified from bovine pancreas (product of Sigma Chemical Co.) which also contained 1 mg/mℓ of purified bovine albumin was added and the mixture was enbjected to reaction at 37°C for 30 minutes. The reaction was quenched by adding 0.03 mℓ of 1 M caustic soda. Fifteen minutes later, 2 mℓ of 0.06 M sodium phosphate buffer solution (pH 7.2) was added to the reaction mixture, and color reaction was performed by addition of 2 mℓ of 1% cyanuric chloride in methyl cellosolve. The mixture was left at room temperature for 15 minutes and the absorbance (a) at 382 nm was measured. The absorbance (b) of a control containing no test compound was also measured by repeating the same procedure. Blank tests were also conducted to determine the corresponding absorbances (a') and (b'). In each blank test, the color reaction was performed by adding the enzyme solution after caustic soda so that no enzymatic reaction would take place. The percent inhibition of the action of carboxypeptidase A was calculated by the formula: [formula]

Data set [2] addresses T2, carboxypeptidase B (Sus scrofa, UniProt P09955).
T2 construct: carboxypeptidase B purified from swine pancreas; purchased C; F. Boehringer & Soehne GmbH, Mannheim; host or cells: swine pancreas
T2 sequence (P09955 111-416): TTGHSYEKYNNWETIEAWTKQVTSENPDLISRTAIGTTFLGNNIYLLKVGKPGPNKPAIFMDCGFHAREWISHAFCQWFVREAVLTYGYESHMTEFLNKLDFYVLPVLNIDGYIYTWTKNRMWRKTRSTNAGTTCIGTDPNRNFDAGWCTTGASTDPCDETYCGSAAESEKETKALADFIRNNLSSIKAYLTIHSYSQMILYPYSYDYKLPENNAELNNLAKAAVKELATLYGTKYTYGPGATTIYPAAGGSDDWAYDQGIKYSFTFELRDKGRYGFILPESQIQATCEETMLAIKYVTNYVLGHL
Kind of data set: Inhibition of the action of carboxypeptidase B. The format is biochemical. The note with it: carboxypeptidase B purified from swine pancreas, 37°C, 30 minutes, pH 8.0; read-out: CP-B inhibition IC50 (converted). As for the experimental part: The inhibition of the action of carboxypeptidase B was determined by an improved version of the method for determination of the activity of angiotensin converting enzyme described in M. Hayakari et al., Analytical Biochemistry, 84, 361 - 369 (1978). The method proceeds as follows: A mixture of 0.05 mℓ of 0.05 M fibril-L-lysine (prepared by Tanpakushitsu Kenkyu Shoreikai) with 0.25 mℓ of 0.05 M Tris-HCℓ buffer solution (pH 8.0) and 0.15 mℓ of a solution containing a test compound was heated at 37°C for 3 minutes. To the heated solution, 0.05 mℓ of an aqueous solution containing 1 ug/mℓ of carboxypeptidase B purified from swine pancreas (product of C. F. Boehringer G Sohne GmbH, Mannheim) and 1 mg/mℓ of bovine albumin was added, and the mixture was subjected to reaction at 37°C for 30 minutes. The reaction was quenched by adding 0.03 mℓ of 1 N caustic soda. Fifteen minutes later, 2 mℓ of 0.05 M sodium phosphate buffer solution (pH 7.2) was added to the reaction mixture, and color reaction was performed by addition of 2 mℓ of 1% cyanuric chloride in methyl cellosolve. The mixture was left at room temperature for 15 minutes and the absorbance (a) at 382 nm was measured. The absorbance (b) of a control containing no test compound was also measured by repeating the same procedure. Blank tests were also conducted to determine the corresponding absorbances (a') and (b').
In each blank teat, the color reaction was performed by adding the enzyme solution after caustic soda so that no enzymatic reaction would take place. The percent inhibition of the action of carboxypeptidase B was calculated by the formula: [formula]

The subject of data set [3] is rats. The data set is described as follows: Acute toxicity test by intraperitoneal administration. It is filed as in vivo. The text has this:
Each of the compounds in accordance with the present invention has low toxicity and can safely be used as a medicine. The results of an acute toxicity test conducted by intraperitoneal administration of rats with compound Nos. la to 5a are summarized in Table 5.

Data set [4] addresses T3, angiotensin converting enzyme (Bos taurus, UniProt P12820).
T3 construct: angiotensin converting enzyme partially purified from a bovine lung; from tissue; host or cells: bovine lung
T3 sequence (P12820 29-1306): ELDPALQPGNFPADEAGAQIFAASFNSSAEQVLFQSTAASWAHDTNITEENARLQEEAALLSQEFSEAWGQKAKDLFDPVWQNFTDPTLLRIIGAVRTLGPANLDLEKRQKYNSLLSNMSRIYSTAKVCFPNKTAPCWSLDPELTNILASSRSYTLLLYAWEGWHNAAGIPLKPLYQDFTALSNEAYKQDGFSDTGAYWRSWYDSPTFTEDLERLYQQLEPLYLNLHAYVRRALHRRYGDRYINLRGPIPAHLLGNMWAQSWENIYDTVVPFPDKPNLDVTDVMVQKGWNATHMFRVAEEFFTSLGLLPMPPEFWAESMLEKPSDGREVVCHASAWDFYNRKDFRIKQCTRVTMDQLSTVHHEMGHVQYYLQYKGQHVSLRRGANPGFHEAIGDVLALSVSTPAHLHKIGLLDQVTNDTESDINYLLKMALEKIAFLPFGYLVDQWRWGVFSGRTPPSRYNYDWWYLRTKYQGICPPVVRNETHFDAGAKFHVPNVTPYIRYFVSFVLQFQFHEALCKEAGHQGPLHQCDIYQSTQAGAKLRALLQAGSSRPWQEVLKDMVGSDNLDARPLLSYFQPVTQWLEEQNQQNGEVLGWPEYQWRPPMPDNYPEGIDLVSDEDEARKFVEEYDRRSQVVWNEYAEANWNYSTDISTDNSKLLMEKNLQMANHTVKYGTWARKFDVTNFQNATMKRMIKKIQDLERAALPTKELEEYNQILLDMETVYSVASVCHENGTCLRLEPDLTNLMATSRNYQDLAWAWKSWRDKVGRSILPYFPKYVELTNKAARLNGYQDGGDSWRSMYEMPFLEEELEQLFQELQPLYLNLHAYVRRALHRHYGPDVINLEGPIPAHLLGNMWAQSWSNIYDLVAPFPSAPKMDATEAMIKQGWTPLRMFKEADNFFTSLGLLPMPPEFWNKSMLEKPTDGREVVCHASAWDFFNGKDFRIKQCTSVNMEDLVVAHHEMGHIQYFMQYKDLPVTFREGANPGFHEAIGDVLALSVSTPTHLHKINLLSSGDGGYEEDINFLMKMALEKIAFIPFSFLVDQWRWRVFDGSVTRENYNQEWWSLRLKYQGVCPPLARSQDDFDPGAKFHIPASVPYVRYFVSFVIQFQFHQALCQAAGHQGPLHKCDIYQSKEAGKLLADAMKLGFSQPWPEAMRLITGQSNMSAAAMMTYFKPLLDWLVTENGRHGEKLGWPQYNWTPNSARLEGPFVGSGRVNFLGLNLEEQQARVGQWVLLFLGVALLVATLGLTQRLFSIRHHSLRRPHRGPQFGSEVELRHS
Kind of data set: Inhibition of the action of angiotensin converting enzyme. The format is biochemical. The note with it: enzyme partially purified from a bovine lung, 37°C, 30 minutes; read-out: IC50 (50% inhibition concentration) (converted). As for the experimental part: The inhibition of the action of angiotensin converting enzyme was determined by an inproved version of the method for determination of the activity of angiotensin converting enzyme described in M. Hayakari et al., Analytical Biochemistry, 84, 361 - 369 (1978). The method proceeds as follows: Substrate fibril-L-histidyl-L-leucine was dissolved at a concentration of 5 mg/mt in Tris-HCℓ buffer solution (0.5 M, pH 8.0) containing 0.3 M NaCℓ. A mixture of this solution (0.05 mℓ) and 0.40 mℓ of a solution containing a test compound was heated at 37°C for 3 minutes. To the heated solution, 0.05 ml of a solution containing angiotensin converting enzyme partially purified from a bovine lung was added, and the mixture was subjected to reaction at 37°C for 30 minutes. The reaction was quenched by adding 0.03 mℓ of 1 N caustic soda. […] The mixture was left at room temperature for 15 minutes and the absorbance (a) at 382 nm was measured. The absorbance (b) of a control containing no test compound was also measured by repeating the same procedure. Blank tests were also conducted to determine the corresponding absorbances (a') and (b'). […] The percent inhibition of the action of angiotensin converting enzyme was calculated by the formula: [formula]

Setting [5] is: intraperitoneal administration, rats, dose stated in each result.

Structures are written as SMILES.

For the compound `NCCC[C@H](NCCN[C@@H](Cc1c[nH]cn1)C(=O)O)C(=O)O` [6a, L-His-C2-L-Orn], the IC50 is more than 638 µM in data set [1] and 357 µM in data set [2].

Regarding `O=C(O)[C@H](Cc1ccccc1)NCCN[C@@H](Cc1c[nH]cn1)C(=O)O` [2a, L-His-C2-L-Phe], the “Test results (acute toxicity)” value in data set [3] (setting [5]) is recorded as “No toxicity observed upon administration of 100 mg/kg”. In addition, the IC50 was 24.3 µM in data set [1] and 185 µM in data set [2].

Consider `O=C(O)C[C@H](NCCN[C@@H](Cc1c[nH]cn1)C(=O)O)C(=O)O` [5a, L-His-C2-L-Asp], for which the “Test results (acute toxicity)” value in data set [3] (rat, in vivo, ip) was “No toxicity observed upon administration of 400 mg/kg”. Moreover, the values for the IC50 in data set [1], in data set [2] and in data set [4] were more than 636 µM, more than 636 µM and 1.59 µM, respectively.

With `O=C(O)[C@H](Cc1c[nH]cn1)NCCN[C@@H](Cc1c[nH]cn1)C(=O)O` [1a, L-His-C2-L-His], in data set [3] (rat, in vivo, ip), the “Test results (acute toxicity)” value was “No toxicity observed upon administration of 400 mg/kg”. The IC50 is more than 595 µM in data set [1], 178 µM in data set [2] and 2.08 µM in data set [4].

In the case of `O=C(O)[C@H](Cc1c[nH]cn1)NCCN1CCC[C@H]1C(=O)O` [4a, L-His-C2-L-Pro], the “Test results (acute toxicity)” value in data set [3] (setting [5]) is listed as “No toxicity observed upon administration of 400 mg/kg”. Moreover, the IC50 in data set [1] and in data set [2] was more than 675 µM in each case.

For the compound `CCOC(=O)[C@H](Cc1ccccc1)NCCN[C@@H](Cc1c[nH]cn1)C(=O)O` [7a, L-His-C2-L-Phe-OEt], the IC50 in data set [1] is 390 µM; in data set [2], more than 534 µM.

Take `NCCCC[C@H](NCCN[C@@H](Cc1c[nH]cn1)C(=O)O)C(=O)O` [3a, L-His-C2-L-Lys]: the “Test results (acute toxicity)” value in data set [3] (setting [5]) is reported as “No toxicity observed upon administration of 400 mg/kg”. In addition, the IC50 in data set [1] and in data set [2] was more than 611 µM throughout.

The values above are taken from patent EP0175180A1, “Histargin-related compounds, a process for their preparation and their use as medicaments” (MICROBIAL CHEMISTRY RESEARCH FOUNDATION, priority 1984, dated 1986).
